# Source: patent publication US10836775B2, “6,6-fused heteroaryl piperidine ether allosteric modulators of the M4 muscarinic acetylcholine receptor” (Merck Sharp & Dohme Corp., priority 2016, dated 2020)
# Molecular target: T1, human M4 muscarinic acetylcholine receptor (Homo sapiens, UniProt P08173)
# T1 construct: expressed in transfected cells; host or cells: CHO-K1
# T1 sequence (P08173 1-479): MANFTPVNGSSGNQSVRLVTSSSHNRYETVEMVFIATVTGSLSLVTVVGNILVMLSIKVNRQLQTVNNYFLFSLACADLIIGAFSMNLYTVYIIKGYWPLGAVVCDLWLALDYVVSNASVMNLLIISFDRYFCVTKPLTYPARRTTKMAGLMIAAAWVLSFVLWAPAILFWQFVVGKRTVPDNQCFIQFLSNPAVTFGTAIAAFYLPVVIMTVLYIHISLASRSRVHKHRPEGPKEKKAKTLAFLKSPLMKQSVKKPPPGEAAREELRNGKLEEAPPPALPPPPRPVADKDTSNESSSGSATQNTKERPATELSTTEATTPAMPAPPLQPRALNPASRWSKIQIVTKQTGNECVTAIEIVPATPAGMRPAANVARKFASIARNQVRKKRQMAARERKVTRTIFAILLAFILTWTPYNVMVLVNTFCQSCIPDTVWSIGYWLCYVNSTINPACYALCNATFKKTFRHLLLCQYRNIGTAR
# Test: human FLIPR-based M4 PAM assay (CHO-K1 cells, human M4 receptor and Gαqi5, calcium dye fluorescence, acetylcholine at 20% of maximum)
# Format: cell-based
# Settings: inflection point (IP) of 4 parameter logistic dose response curve; CHO-K1 cells with human M4 receptor and Gαqi5; FLIPR Tetra
# Procedure: In a typical experiment the M4 muscarinic acetylcholine receptor modulating activity of the compounds of the present invention was determined in accordance with the following experimental method. […] On the day of assay, growth medium is removed, the cells are washed 2 times with wash buffer, and cells are incubated in dye loading buffer at 37° C., 5% CO2 for ˜1 hour. […] Next, 10 uL of acetylcholine is added (final concentration calculated so as to achieve 20% of the maximum acetycholine response), and the fluorescence reading is continued for 3.5 min. In some cases, a third addition of acetylcholine (final concentration calculated to achieve 70% of the maximal acetylcholine response) is performed. The resulting dose response curves are fit to a 4 parameter logistic equation and the final result is determined as the inflection point (IP) of the curve
# CHO-K1 cells stably transfected with human M4 receptor and chimeric G-protein Gαqi5 are thawed from liquid N2 storage, resuspended in growth medium, plated in black, clear bottom 384 well plates, and incubated 16-20 hours at 37° C., 5% CO2.
# On the day of assay, growth medium is removed, the cells are washed 2 times with wash buffer, and cells are incubated in dye loading buffer at 37° C., 5% CO2 for ˜1 h. […] Next, 10 uL of acetylcholine is added (final concentration calculated so as to achieve 20% of the maximum acetycholine response), and the fluorescence reading is continued for 3.5 min. In some cases, a third addition of acetylcholine (final concentration calculated to achieve 70% of the maximal acetylcholine response) is performed.
row,SMILES,EC50 [nM]
1,"COc1ccc(OC2CCN(c3nc4c(cc3C)C(=O)NCC4)CC2)cn1 [Example 1, 2-(4-((6-Methoxypyridin-3-yl)oxy)piperidin-1-yl)-3-methyl-7,8-dihydro-1,6-naphthyridin-5(6H)-one]",393
2,"COc1ccc(CN2CCc3nc(N4CCC(Oc5ccc(OC)nc5)CC4)c(C)cc3C2=O)cc1 [Example 2, 6-(4-methoxybenzyl)-2-(4-((6-methoxypyridin-3-yl)oxy)piperidin-1-yl)-3-methyl-7,8-dihydro-1,6-naphthyridin-5(6H)-one]",988
3,"COc1ccc(OC2CCN(c3nc4c(cc3C)C(=O)N(Cc3ccncc3)CC4)CC2)cn1 [Example 3, 2-(4-((6-methoxypyridin-3-yl)oxy)piperidin-1-yl)-3-methyl-6-(pyridin-4-ylmethyl)-7,8-dihydro-1,6-naphthyridin-5(6H)-one]",453
4,"COc1ccc(OC2CCN(c3nc4c(cc3C)C(=O)N(C)CC4)CC2)cn1 [Example 4, 2-(4-((6-methoxypyridin-3-yl)oxy)piperidin-1-yl)-3,6-dimethyl-7,8-dihydro-1,6-naphthyridin-5(6H)-one]",431
5,"COc1ccc(OC2CCN(c3nc4c(cc3C)c(=O)[nH]c(=O)n4C)CC2)cn1 [Example 5, 7-(4-((6-Methoxypyridin-3-yl)oxy)piperidin-1-yl)-1,6-dimethylpyrido[2,3-d]pyrimidine-2,4(1H,3H)-dione]",366
6,"COc1ccc(OC2CCN(c3nc4[nH]c(=O)n(C)c(=O)c4cc3C)CC2)cn1 [Example 6, 7-(4-((6-Methoxypyridin-3-yl)oxy)piperidin-1-yl)-3,6-dimethylpyrido[2,3-d]pyrimidine-2,4(1H,3H)-dione]",59
7,"Cc1cc2c(=O)[nH]c(=O)[nH]c2nc1N1CCC(Oc2cccc(C#N)c2)CC1 [Example 7, 3-((1-(6-methyl-2,4-dioxo-1,2,3,4-tetrahydro-pyrido[2,3-d]pyrimidin-7-yl)piperidin-4-yl)oxy)benzonitrile]",41
8,"COc1ccc(OC2CCN(c3nc4[nH]c(=O)[nH]c(=O)c4cc3C)CC2)cn1 [Example 8, 7-(4-((6-Methoxypyridin-3-yl)oxy)piperidin-1-yl)-6-methylpyrido[2,3-d]pyrimidine-2,4(1H,3H)-dione]",18
9,"COc1ccc(OC2CCN(c3nc4nc(CO)[nH]c(=O)c4cc3C)CC2)cn1 [Example 9, 2-(Hydroxymethyl)-7-(4-((6-methoxypyridin-3-yl)oxy)piperidin-1-yl)-6-methylpyrido[2,3-d]pyrimidin-4(3H)-one]",140
10,"COc1ccc(OC2CCN(c3nc4nc[nH]c(=O)c4cc3C)CC2)cn1 [Example 10, 7-(4-((6-methoxypyridin-3-yl)oxy)piperidin-1-yl)-6-methylpyrido[2,3-d]pyrimidin-4(3H)-one]",34
11,"COc1ccc(OC2CCN(c3nc4cn[nH]c(=O)c4cc3C)CC2)cn1 [Example 11, 2-(4-((6-methoxypyridin-3-yl)oxy)piperidin-1-yl)-3-methylpyrido[2,3-d]pyridazin-5(6H)-one]",22
12,"COc1ccc(OC2CCN(c3nc4cc[nH]c(=O)c4cc3C)CC2)cn1 [Example 12, 2-(4-((6-methoxypyridin-3-yl)oxy)piperidin-1-yl)-3-methyl-1,6-naphthyridin-5(6H)-one]",114
13,"COc1ccc(OC2CCN(c3nc4cnn(C)c(=O)c4cc3C)CC2)cn1 [Example 13, 2-(4-((6-methoxypyridin-3-yl)oxy)piperidin-1-yl)-3,6-dimethylpyrido[2,3-d]pyridazin-5(6H)-one]",61
14,"Cc1cc2c(=O)[nH]cnc2nc1N1CCC(Oc2ccccc2)CC1 [Example 14, 6-methyl-7-(4-phenoxypiperidin-1-yl)pyrido[2,3-d]pyrimidin-4(3H)-one]",80
15,"Cc1cc2c(=O)[nH]cnc2nc1N1CCC(Oc2cccc(C#N)c2)CC1 [Example 15, 3-((1-(6-methyl-4-oxo-3,4-dihydropyrido[2,3-d]pyrimidin-7-yl)piperidin-4-yl)oxy)benzonitrile]",23
16,"Cc1cc2c(=O)[nH]cnc2nc1N1CCC(Oc2cccnc2)CC1 [Example 16, 6-methyl-7-(4-(pyridin-3-yloxy)piperidin-1-yl)pyrido[2,3-d]pyrimidin-4(3H)-one]",213

row,SMILES,EC50 [nM]
1,"Cc1cc2c(=O)[nH]cnc2nc1N1CCC(OCC2CC2)CC1 [Example 17, 7-(4-(cyclopropyl-methoxy)piperidin-1-yl)-6-methylpyrido[2,3-d]pyrimidin-4(3H)-one]",121
2,"Cc1cc2c(=O)[nH]ncc2nc1N1CCC(OCC2CCCC2)CC1 [Example 18, 2-(4-(cyclopentyl-methoxy)piperidin-1-yl)-3-methylpyrido[2,3-d]pyridazin-5(6H)-one]",254
3,"COc1ccc(OC2CCN(c3nc4nc(C)[nH]c(=O)c4cc3C)CC2)cn1 [Example 19, 7-(4-((6-methoxypyridin-3-yl)oxy)piperidin-1-yl)-2,6-dimethylpyrido[2,3-d]pyrimidin-4(3H)-one]",74
4,"Cc1nc2nc(N3CCC(OCC4(C)CC4)CC3)c(C)cc2c(=O)[nH]1 [Example 20, 2,6-dimethyl-7-(4-((1-methylcyclopropyl)methoxy)piperidin-1-yl)pyrido[2,3-d]pyrimidin-4(3H)-one]",50
5,"Cc1cc2c(=O)[nH]ncc2nc1N1CCC(Oc2cccc(C#N)c2)CC1 [Example 21, 3-((1-(3-methyl-5-oxo-5,6-dihydropyrido[2,3-d]pyridazin-2-yl)piperidin-4-yl)oxy)benzonitrile]",26
6,"Cc1nc2nc(N3CCC(Oc4cnc5c(c4)COC5)CC3)c(C)cc2c(=O)[nH]1 [Example 22, 7-(4-((5,7-dihydrofuro[3,4-b]pyridin-3-yl)oxy)piperidin-1-yl)-2,6-dimethylpyrido[2,3-d]pyrimidin-4(3H)-one]",158
7,"Cc1cc2c(=O)[nH]ncc2nc1N1CCC(Oc2cnn(C)c2)CC1 [Example 23, 3-methyl-2-(4-((1-methyl-1H-pyrazol-4-yl)oxy)piperidin-1-yl)pyrido[2,3-d]pyridazin-5(6H)-one]",158
8,"Cc1cc2c(=O)[nH]ncc2nc1N1CCC(OCC2(C)CC2)CC1 [Example 24, 3-methyl-2-(4-((1-methylcyclopropyl)methoxy)piperidin-1-yl)pyrido[2,3-d]pyridazin-5(6H)-one]",18
9,"Cc1cc2c(=O)[nH]c(=O)[nH]c2nc1N1CCC(OCC2(C)CC2)CC1 [Example 25, 6-methyl-7-(4-((1-methylcyclopropyl)methoxy)piperidin-1-yl)pyrido[2,3-d]pyrimidine-2,4(1H,3H)-dione]",19
10,"Cc1cc2c(=O)[nH]c(=O)[nH]c2nc1N1CCC(Oc2cnn(C)c2)CC1 [Example 26, 6-methyl-7-(4-((1-methyl-1H-pyrazol-4-yl)oxy)piperidin-1-yl)pyrido[2,3-d]pyrimidine-2,4(1H,3H)-dione]",90
11,"Cc1nc2nc(N3CCC(Oc4cnn(C)c4)CC3)c(C)cc2c(=O)[nH]1 [Example 27, 2,6-dimethyl-7-(4-((1-methyl-1H-pyrazol-4-yl)oxy)piperidin-1-yl)pyrido[2,3-d]pyrimidin-4(3H)-one]",494
12,"COCc1nc2nc(N3CCC(Oc4ccc(OC)nc4)CC3)c(C)cc2c(=O)[nH]1 [Example 28, 2-(methoxymethyl)-7-(4-((6-methoxypyridin-3-yl)oxy)piperidin-1-yl)-6-methylpyrido[2,3-d]pyrimidin-4(3H)-one]",95
13,"Cc1cc2c(=O)[nH]ncc2nc1N1CCC(Oc2cnc3c(c2)COC3)CC1 [Example 29, 2-(4-((5,7-dihydrofuro[3,4-b]pyridin-3-yl)oxy)piperidin-1-yl)-3-methylpyrido[2,3-d]pyridazin-5(6H)-one]",53
14,"COCCc1nc2nc(N3CCC(Oc4ccc(OC)nc4)CC3)c(C)cc2c(=O)[nH]1 [Example 30, 2-(2-methoxyethyl)-7-(4-((6-methoxypyridin-3-yl)oxy)piperidin-1-yl)-6-methylpyrido[2,3-d]pyrimidin-4(3H)-one]",546
15,"CCc1cc2c(=O)[nH]c(=O)[nH]c2nc1N1CCC(OCC2(C)CC2)CC1 [Example 31, 6-ethyl-7-(4-((1-methylcyclopropyl)methoxy)piperidin-1-yl)pyrido[2,3-d]pyrimidine-2,4(1H,3H)-dione]",42
16,"Cc1cc2c(=O)[nH]c(=O)[nH]c2nc1N1CCC(OCC2CCC2)CC1 [Example 32, 7-(4-(cyclobutyl-methoxy)piperidin-1-yl)-6-methylpyrido[2,3-d]pyrimidine-2,4(1H,3H)-dione]",236
